Source: patent publication US20250025568A1, “COMBINATION OF ANTIBODY-DRUG CONJUGATE AND PARP1 SELECTIVE INHIBITOR” (AstraZeneca UK Limited, priority 2021, published 2025)

Legend:
[1] = system: CTG-3303 TNBC PDX; test: Antitumor test in vivo, TNBC patient derived xenograft model (Example 5); design: species or system Female Nude mice
Text: Female Nude mice (Charles River) aged 5-8 weeks were used, following 7 days acclimatisation before entry into the study. The human patient-derived xenograft (PDX) model, CTG-3303, was established from fragments of freshly resected tumor of a triple negative breast cancer (TNBC) patient whom relapsed on treatment with PARP inhibitor talazoparib. This PDX was obtained in accordance with appropriate consent procedures. This TNBC PDX model was subcutaneously passaged in vivo as fragments from animal to animal in nude mice. When tumors reached approximately 250 mm^3, similar-sized tumors were randomly assigned to treatment groups as shown in Table 8:
(§1) The dose of compound for each animal was calculated based on the individual body weight on the day of dosing. DS-1062 and AZD5305 were dosed on the same day, with DS-1062 being administered approximately 5 hour post the PO dose of AZD5305. DS-1062 was administered as a single dose at 10 mg/kg on day 1, and AZD5305 was administered at 1 mg/kg QD for 21 days. Duration of dosing was for 21 days.
(§2) Tumor growth inhibition (TGI) was calculated as follows:
(§3) where MTV=mean tumor volume.
(§4) Statistical significance was evaluated using one-tailed t-test of (log (relative tumor volume)=log (final vol/start vol)) at the day of final measure, comparing to vehicle control.
In addition, the percentage of mice in each treatment group achieving a complete response (defined as tumor volume <20 mm^3) at day 46 post treatment were calculated and shown in FIG. 19B. Monotherapy with DS-1062 at 10 mg/kg led to 1 out 8 mice (12.5%) achieving a complete response at day 46 post treatment. AZD5305 monotherapy led to 0 out 8 mice (0%) achieving a complete response at day 46 post treatment. Combination treatment of AZD5305 with DS-1062 at 10 mg/kg led to 2 out 8 mice (25%) achieving a complete response at day 46 post treatment and led to higher complete response rates than either respective monotherapy.

[2] = system: CTG-3718 ovarian PDX; test: Antitumor test in vivo, CTG-3718 xenograft model (Example 8); design: species or system nude mice; details: AZD5305 0.1 mg/kg PO QD (21 days), 0.1 mg/kg
Text: The human patient-derived xenograft (PDX) model, CTG-3718, was established from fragments of freshly resected tumor of an ovarian cancer patient who relapsed on treatment with PARP inhibitor talazoparib. This PDX was obtained in accordance with appropriate consent procedures. This ovarian PDX model was subcutaneously passaged in vivo as fragments from animal to animal in nude mice. When tumors reached approximately 250 mm^3, similar-sized tumors were randomly assigned to treatment groups as shown in Table 14: […]

[3] = system: BRCA2 −/− DLD-1; details: 4 day compound dosing; read-out: BRCA2 −/− DLD-1 prolif 4 d IC50; cited from earlier work
[4] = system: NCI-N87 xenograft (gastric cancer cell line); test: Antitumor test (dose titration) in vivo, NCI-N87 xenograft model (Example 6); design: species or system Female Nude mice; details: AZD5305 1 mg/kg PO QD for 21 days, 1 mg/kg
Procedure: Female Nude mice (Charles River) aged 5-8 weeks were used, following 7 days acclimatisation before entry into the study. 5×10^6 NCI-N87 tumor cells (gastric cancer cell line) (1:1 in Matrigel) were implanted subcutaneously onto the flank of the female Nude mice. When tumors reached approximately 250 mm^3, similar-sized tumors were randomly assigned to treatment groups as shown in Table 10:
The dose of compound for each animal was calculated based on the individual body weight on the day of dosing. DS-1062 and AZD5305 were dosed on the same day, with DS-1062 being administered approximately 5 hour post the PO dose of AZD5305. DS-1062 was administered as a single dose at 10 mg/kg on day 1, and AZD5305 was administered at 1, 0.1 or 0.01 mg/kg QD for 21 days. Duration of dosing was for 21 days.

[5] = system: NCI-N87 xenograft (gastric cancer cell line); test: Antitumor test (dose regimen optimization) in vivo, NCI-N87 xenograft model (Example 7); design: species or system Female Nude mice; details: AZD5305 1 mg/kg PO QD (21 days), 1 mg/kg
Procedure: Female Nude mice (Charles River) aged 5-8 weeks were used, following 7 days acclimatisation before entry into the study. 5×10^6 NCI-N87 tumor cells (gastric cancer cell line) (1:1 in Matrigel) were implanted subcutaneously onto the flank of the female Nude mice. When tumors reached approximately 250 mm^3, similar-sized tumors were randomly assigned to treatment groups as shown in Table 12:
The dose of compound for each animal was calculated based on the individual body weight on the day of dosing. […]

[6] = system: NCI-N87 xenograft (gastric cancer cell line); test: Antitumor test in vivo, NCI-N87 xenograft model (Example 4); design: species or system Female Nude mice; details: AZD5305 1 mg/kg PO QD for 21 days, 1 mg/kg
Procedure: Female Nude mice (Charles River) aged 5-8 weeks were used, following 7 days acclimatisation before entry into the study. 5×10^6 NCI-N87 tumor cells (gastric cancer cell line) (1:1 in Matrigel) were implanted subcutaneously onto the flank of the female Nude mice. When tumors reached approximately 250 mm^3, similar-sized tumors were randomly assigned to treatment groups as shown in Table 6:
as §1, §2, §3, §4

[7] = system: WT DLD-1; details: 4 day compound dosing; read-out: WT DLD-1 prolif 4 d IC50; cited from earlier work
[8] = target: hERG (Homo sapiens, UniProt Q12809); details: cited from earlier work
Chain of hERG (Q12809 whole entry): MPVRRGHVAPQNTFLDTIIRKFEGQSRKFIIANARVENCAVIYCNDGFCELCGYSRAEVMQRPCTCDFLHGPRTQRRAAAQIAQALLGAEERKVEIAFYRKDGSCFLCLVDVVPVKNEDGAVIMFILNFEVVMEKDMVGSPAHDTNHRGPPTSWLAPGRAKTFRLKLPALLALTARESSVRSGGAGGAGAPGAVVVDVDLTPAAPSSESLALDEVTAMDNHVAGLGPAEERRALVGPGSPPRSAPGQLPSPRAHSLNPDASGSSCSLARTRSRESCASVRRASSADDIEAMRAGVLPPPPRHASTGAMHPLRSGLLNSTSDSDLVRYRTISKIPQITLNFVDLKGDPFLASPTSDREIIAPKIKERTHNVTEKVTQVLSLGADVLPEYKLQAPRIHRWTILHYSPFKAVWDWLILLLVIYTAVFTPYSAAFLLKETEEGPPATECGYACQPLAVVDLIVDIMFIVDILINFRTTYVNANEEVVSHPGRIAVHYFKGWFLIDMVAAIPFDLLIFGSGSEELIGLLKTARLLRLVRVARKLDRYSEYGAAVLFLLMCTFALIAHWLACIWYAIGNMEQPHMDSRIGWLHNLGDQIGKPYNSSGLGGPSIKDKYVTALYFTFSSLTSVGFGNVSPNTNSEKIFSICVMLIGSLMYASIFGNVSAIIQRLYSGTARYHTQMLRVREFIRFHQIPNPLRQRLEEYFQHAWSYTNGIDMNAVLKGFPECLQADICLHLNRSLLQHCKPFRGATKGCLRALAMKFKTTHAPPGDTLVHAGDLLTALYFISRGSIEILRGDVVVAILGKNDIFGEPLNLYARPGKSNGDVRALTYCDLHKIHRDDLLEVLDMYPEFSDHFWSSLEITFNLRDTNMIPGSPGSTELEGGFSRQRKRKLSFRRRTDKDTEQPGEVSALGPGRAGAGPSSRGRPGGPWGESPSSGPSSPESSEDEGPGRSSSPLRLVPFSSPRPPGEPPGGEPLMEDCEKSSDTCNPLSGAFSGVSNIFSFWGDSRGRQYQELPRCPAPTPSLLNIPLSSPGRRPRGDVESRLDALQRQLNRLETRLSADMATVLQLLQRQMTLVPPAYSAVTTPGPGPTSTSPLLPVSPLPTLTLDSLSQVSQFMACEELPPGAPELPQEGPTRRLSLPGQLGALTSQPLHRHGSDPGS

Compound: CCc1cc2ncc(CN3CCN(c4ccc(C(=O)NC)nc4)CC3)cc2[nH]c1=O [Example 4, 5-[4-[(7-ethyl-6-oxo-5H-1,5-naphthyridin-3-yl)methyl]piperazin-1-yl]-N-methyl-pyridine-2-carboxamide]
- TGI % day 46 ([1]; AZD5305 1 mg/kg PO QD for 21 days, CTG-3303 TNBC PDX, 1 mg/kg): 28%
- percentage of mice achieving a complete response (tumor volume <20 mm^3) ([1]; day 46 post treatment, AZD5305 1 mg/kg QD): 0%
- TGI % day 28 [2]: −16%
- IC50 [3]: > 0.017 µM
- TGI % day 49 [4]: 18%
- TGI % day 52 [5]: 26%
- TGI % day 19 [6]: 22%
- IC50 [7]: > 30 µM

Compound: CCc1cc2ncc(CN3CCN(c4ccc(C(=O)NC)nc4C(F)(F)F)CC3)cc2[nH]c1=O [Example 30, 5-[4-[(7-ethyl-6-oxo-5H-1,5-naphthyridin-3-yl)methyl]piperazin-1-yl]-N-methyl-6 (trifluoromethyl)pyridine-2-carboxamide]
- IC50 [3]: 0.004 µM
- IC50 [8]: > 40 µM
- IC50 [7]: > 30 µM
